# Assay results published in patent US7192607B2, “Formulations for the prevention or the treatment of diseases affecting mucosae or skin, or for pregnancy prevention, and an applicator for the delivery of topical formulations into mucosal cavities” (Infectio Recherche Inc, priority 2002, dated 2007).
# What was measured:
# HSV-2 (333) = test: Infectivity of HSV-2 (333) pretreated with SLS on Vero cells (PFU); type: cell-based, Herpes simplex virus type-2
# Method: (§1) The effect of pretreating different strains of herpes viruses with SLS or DS on their viral infectivities to susceptible cells has been evaluated. In brief, cells were seeded in 24 well-plates (Costar, Montreal, QC, Canada). Prior to infection, the virus was either suspended in culture medium or phosphate buffered saline (PBS), or incubated with different concentrations of SLS in PBS for 1 h at 37° C. At confluency, cells were incubated with viral suspensions by centrifuging the plates (750× g for 45 min at 20° C.) to allow virus adsorption. Virus was removed and cell sheets were then overlaid with 0.5 ml of 0.6% agarose Seaplaque (Marine Colloids, Rockland, Md.) prepared in appropriate culture medium. The plates were incubated for 2 days at 37° C. Cells were then fixed with 10% formaldehyde in PBS for 20 min, washed with deionized water and stained with 0.05% methylene blue. Viral infectivity was evaluated via the determination of Plaque Forming Units (PFU).
# HSV-1 (strain F) [1] = test: Murine cutaneous infection model, HSV-1 pretreated with SLS or DS; type: in vivo, hairless mice (SKH1)
# Method: The effect of pretreating HSV-1 (strain F) with SLS on viral infectivity has also been evaluated in a murine cutaneous infection model. Female hairless mice (SKH1; Charles River Breeding Laboratories Inc., St-Constant, QC, Canada), 5–6 weeks old were used throughout this study. […] Mice were anesthetized by intraperitoneal injection of a mixture containing 70 mg/kg ketamine hydrochloride (Rogarsetic* injection USP; Rogar/STB Inc. Montreal, QC, Canada) and 11.5 mg/kg xylazine (Rompun®; Miles Canada Inc., Etobicoke, ON, Canada). The virus was inoculated on the lateral side of the body in the left lumbar skin area. The skin was scratched six times in a crossed-hatched pattern with a 27-gauge needle held vertically. Viral suspension (50 μl) was deposited onto the scarified area and rubbed for 10 to 15 see with a cotton tipped applicator saturated with EMEM+2% FBS or SLS or DS solutions. The scarified area was protected with a corn cushion which was maintained on the mice body with surgical tape. The porous inner wall of the aperture of the corn cushion was impermeabilized with tissue adhesive prior to use to prevent absorption of the drug. The aperture of the corn cushion was also closed with surgical tape. Mice were then returned to their cages and observed twice daily.
# In infected untreated mice, no pathological signs of cutaneous infection were visible during the first four days following infection and only the scarified area remained appearent. On day 5, herpetic skin lesions began to appear in some mice in the form of small vesicles distant from the inoculation site. On day 6, almost all untreated mice developed herpetic skin lesions in the form of a 4–5 mm wide band extending from the spine to the ventral midline of the infected dermatome similar to zoster-like infections. Maximal mean lesion score was observed on day 8. Mean lesion score decreased thereafter from day 11 to day 15 because of spontaneous regression of cutaneous lesions in some mice. […] Of prime importance, all mice infected with the virus pretreated with 100 μM SLS survived the infection (data not shown).
# [2] = tested on: glycoprotein D gene of HSV-1 (strain F); test: Quantification of HSV glycoprotein D gene in Vero cells infected with pretreated virus (hybridization, densitometry); type: cell-based, Herpes simplex virus type-1; conditions: 48 h infection
# Method: The quantification of the glycoprotein D gene of HSV-1 (strain F) pretreated with SLS was also evaluated in Vero cells in order to determine the presence of viral DNA in the infected cells. In brief, HSV-1 (strain F) was pretreated with varying SLS concentrations (12.5, 25, 50, 75 and 100 μM) in EMEM +2% FBS for 1 h at 37° C. Vero cells (80–90% confluent) were infected with the virus (100 PFU/ml in 20 ml) for 48 h at 37° C. in a 5% CO2 atmosphere. The culture medium was removed and cell sheet was washed twice with 1× HBSS. Cells were scrapped off from the dishes and resuspended in EMEM +2% FBS. Total DNA was extracted using a standard phenol/chloroform procedure. Quantitation of total DNA was achieved using the Burton procedure. The probe used for this study corresponds to a part of glycoprotein D of HSV-2 (strain 333), generated by PCR using the following primers: • P1 (5′-[…]-3′) and • P2 (5′-[…]-3′) and was [^32P]-labeled by random priming. Hybridization was performed at 65° C. in 0.25 M Na2HPO4 (pH 6.8 with orthophosphoric acid) and 7% SDS. Washes were done in 40 mM Na2HPO4 (pH 6.8 with orthophosphoric acid) and 1% SDS for 20 min at 65° C. followed by 20 min at 25° C.
# Following a 48 h incubation, cells were collected and total DNA was extracted. […] Quantitative measurements of HSV-1 DNA levels obtained by scanning densitometry of the autoradiogram were similar (Panel B).
# HSV-1 (strain F) [3] = test: Efficacy of SLS or DS added in overlay after infection against HSV-1 (strain F) in Vero cells (PFU); type: cell-based, Herpes simplex virus type-1; conditions: cells infected 2 h, compound in overlay for 2 days, FIG. 2
# Method: In brief, cells were infected with the virus for 2 h at 37° C. Afterwards, supernatant was removed and cells were overlaid with 0.5 ml of EMEM +2% FBS containing 0.6% agarose Seaplaque and SLS or DS at the desired concentration. Plates were then incubated for 2 days at 37° C. in a 5% CO2 atmosphere. Cells were fixed with 10% formaldehyde in PBS for 20 min, washed with deionized water and stained with 0.05% methylene blue. Viral infectivity was evaluated following the determination of PFU.
# HSV-2 (22) = test: Infectivity of HSV-2 (22) pretreated with SLS on Vero cells (PFU); type: cell-based, Herpes simplex virus type-2
# Method: as §1
# HSV-2 (6) = test: Infectivity of HSV-2 (6), acyclovir-resistant strain, pretreated with SLS on Vero cells (PFU); type: cell-based, Herpes simplex virus type-2
# Method: as §1
# HSV-2 (15589) = test: Infectivity of HSV-2 (15589), foscarnet-resistant strain, pretreated with SLS on Vero cells (PFU); type: cell-based, Herpes simplex virus type-2
# Method: as §1
# [4] = tested on: various HSV-1 and HSV-2 strains; test: Infectivity of HSV strains pretreated with SLS on Vero cells, text summary across strains; type: cell-based, Herpes simplex virus; conditions: pretreatment of the viruses with 50 μM SLS
# Method: as §1
# HSV-1 (strain F) infectivity was reduced to 21% when viral particles were pretreated with 25 μM SLS. The infectivities of all HSV-2 strains were between 50 to 70% following preincubation with 25 μM SLS. A complete loss of the infectivity of all strains tested were obtained following pretreatment of the viruses with 50 μM SLS.
# [5] = virus pretreated with 6.25 μM SLS for 1 hour at 37° C.
# [6] = virus pretreated with 12.5 μM SLS for 1 hour at 37° C.
# [7] = virus pretreated with 25 μM SLS for 1 hour at 37° C.
# [8] = virus pretreated with 50 μM SLS for 1 hour at 37° C.
# [9] = virus pretreated with 100 μM SLS for 1 h at 37° C.
smiles,measurement,setting,value
"CCCCCCCCCCCCOS(=O)(=O)[O-].[Na+] [SLS, Sodium lauryl sulfate]",PFU (% of control) for HSV-2 (333),HSV-2 (333); [5],102.9 ± 23.5 % of control
same,PFU (% of control) for HSV-2 (333),HSV-2 (333); [6],115.4 ± 17.0 % of control
same,PFU (% of control) for HSV-2 (333),HSV-2 (333); [7],72.9 ± 9.1 % of control
same,PFU (% of control) for HSV-2 (333),HSV-2 (333); [8],0 % of control
same,cutaneous lesions,HSV-1 (strain F) [1]; [9],did not demonstrate any signs of cutaneous lesions
same,mice that survived the infection,"HSV-1 (strain F) [1]; virus pretreated with 100 μM SLS, data not shown",all
same,mean lesion score,HSV-1 (strain F) [1]; virus pretreated with 6.25 and 25 μM SLS for 1 h at 37° C.,did not demonstrate a significant reduction
same,HSV-1 DNA levels (glycoprotein D gene),[2]; virus pretreated with 75 μM SLS for 1 h at 37° C.,65.1 % of control values
same,HSV-1 DNA levels (glycoprotein D gene),[2]; [9],34.9 % of control values
same,expression of the glycoprotein D gene compared to control,"[2]; virus pretreated with 12.5, 25 and 50 μM SLS for 1 h at 37° C.",No major modification
same,concentration with complete efficacy against viral replication,HSV-1 (strain F) [3],100 µM
same,PFU (% of control) for HSV-2 (22),HSV-2 (22); [5],128.0 ± 18.5 % of control
same,PFU (% of control) for HSV-2 (22),HSV-2 (22); [6],103.4 ± 14.9 % of control
same,PFU (% of control) for HSV-2 (22),HSV-2 (22); [7],63.8 ± 11.9 % of control
same,PFU (% of control) for HSV-2 (22),HSV-2 (22); [8],0 % of control
same,PFU (% of control) for HSV-2 (6),HSV-2 (6); [5],105.3 ± 12.4 % of control
same,PFU (% of control) for HSV-2 (6),HSV-2 (6); [6],82.1 ± 40.7 % of control
same,PFU (% of control) for HSV-2 (6),HSV-2 (6); [7],51.1 ± 30.1 % of control
same,PFU (% of control) for HSV-2 (6),HSV-2 (6); [8],0 % of control
same,PFU (% of control) for HSV-2 (15589),HSV-2 (15589); [5],108.7 ± 22.2 % of control
same,PFU (% of control) for HSV-2 (15589),HSV-2 (15589); [6],115.1 ± 17.5 % of control
same,PFU (% of control) for HSV-2 (15589),HSV-2 (15589); [7],59.0 ± 4.0 % of control
same,PFU (% of control) for HSV-2 (15589),HSV-2 (15589); [8],0 % of control
same,infectivity of all strains tested,[4],complete loss
